Measurements reported in publication PMC9000887, “Novel 1,2,3-Triazole-Coumarin Hybrid Glycosides and Their Tetrazolyl Analogues: Design, Anticancer Evaluation and Molecular Docking Targeting EGFR, VEGFR-2 and CDK-2” (Molecules, 2022).
Where two headings read alike, the source gives them in different places.

Assays:
[1] = test system: human prostate (PC-3) cancer cell line; assay: MTT cytotoxicity assay, PC-3; settings: for inhibition at 100 µM / IC50: Homo sapiens; for inhibition at 100 µM: read-out: % Inhibition PC-3; for IC50: read-out: IC50 (Mean ± SEM) PC-3
Method: (§2) After 48 h incubation, the medium was aspirated and then 40 μL MTT salt (2.5 mg/mL) was added for a further 4 h. […] Doxorubicin was used as the positive control and 0.5% DMSO was used as the negative control.

[2] = test system: human melanoma (A-375) cancer cell line; assay: MTT cytotoxicity assay, A-375; settings: for inhibition at 100 µM / IC50: Homo sapiens; for inhibition at 100 µM: A-375, read-out: % Inhibition A-375; for IC50: A-375, read-out: IC50 (Mean ± SEM) A-375
Method: as §2

[3] = test system: human pancreatic (Paca-2) cancer cell line; assay: MTT cytotoxicity assay, Paca-2; settings: for inhibition at 100 µM: PaCa-2, read-out: % Inhibition Paca-2
Method: as §2

[4] = test system: human colon (Caco-2) cancer cell line; assay: MTT cytotoxicity assay, Caco-2; settings: for % Inhibition Caco-2: Caco-2, at 100 µM, MTT, (-) No activity detected; for IC50: read-out: IC50 (Mean ± SEM) Caco-2, Caco-2, MTT, three independent determinations
Method: as §2

[5] = test system: human melanoma (Mel-501) cancer cell line; assay: MTT cytotoxicity assay, Mel-501; settings: for inhibition at 100 µM: read-out: % Inhibition Mel-501; for IC50: read-out: IC50 (Mean ± SEM) Mel-501
Method: as §2

[6] = target: EGFR (Homo sapiens, UniProt P00533); assay: In vitro kinase inhibitory assessment, EGFR (Kinase-Glo luminescence); assay type: biochemical; settings: mean of three values; read-out: IC50 (Mean ± SEM) EGFR
EGFR, sequence (P00533 25-1210): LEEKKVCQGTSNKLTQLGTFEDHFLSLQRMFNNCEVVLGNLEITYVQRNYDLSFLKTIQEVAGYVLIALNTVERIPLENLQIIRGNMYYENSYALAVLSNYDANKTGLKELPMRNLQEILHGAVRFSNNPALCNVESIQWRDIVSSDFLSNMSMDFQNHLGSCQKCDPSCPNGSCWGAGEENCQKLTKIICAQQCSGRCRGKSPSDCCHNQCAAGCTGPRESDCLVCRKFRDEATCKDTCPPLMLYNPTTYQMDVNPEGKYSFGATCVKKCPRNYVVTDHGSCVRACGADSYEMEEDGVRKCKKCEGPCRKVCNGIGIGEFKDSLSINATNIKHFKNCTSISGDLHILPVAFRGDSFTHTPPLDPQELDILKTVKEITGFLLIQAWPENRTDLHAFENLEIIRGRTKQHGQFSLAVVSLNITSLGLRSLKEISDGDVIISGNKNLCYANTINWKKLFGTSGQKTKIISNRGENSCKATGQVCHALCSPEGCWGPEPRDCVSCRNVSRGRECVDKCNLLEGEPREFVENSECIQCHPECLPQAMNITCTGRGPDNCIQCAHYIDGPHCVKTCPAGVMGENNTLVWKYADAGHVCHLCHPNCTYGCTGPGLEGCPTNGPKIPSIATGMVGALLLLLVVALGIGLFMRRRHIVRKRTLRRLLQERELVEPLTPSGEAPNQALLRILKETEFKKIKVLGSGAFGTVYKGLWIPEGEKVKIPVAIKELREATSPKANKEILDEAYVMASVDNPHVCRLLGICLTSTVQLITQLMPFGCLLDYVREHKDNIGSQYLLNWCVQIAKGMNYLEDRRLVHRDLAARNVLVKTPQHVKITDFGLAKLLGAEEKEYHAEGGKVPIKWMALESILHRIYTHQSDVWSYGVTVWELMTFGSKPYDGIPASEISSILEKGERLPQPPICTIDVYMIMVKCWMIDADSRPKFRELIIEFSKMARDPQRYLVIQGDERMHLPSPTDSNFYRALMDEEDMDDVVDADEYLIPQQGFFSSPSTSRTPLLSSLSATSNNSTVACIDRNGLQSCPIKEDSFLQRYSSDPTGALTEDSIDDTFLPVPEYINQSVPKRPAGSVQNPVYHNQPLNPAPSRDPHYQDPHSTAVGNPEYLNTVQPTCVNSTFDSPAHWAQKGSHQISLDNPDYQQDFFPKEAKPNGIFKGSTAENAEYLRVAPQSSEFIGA

[7] = target: VEGFR-2 (Homo sapiens, UniProt P35968); assay: biochemical
VEGFR-2, sequence (P35968 20-1356): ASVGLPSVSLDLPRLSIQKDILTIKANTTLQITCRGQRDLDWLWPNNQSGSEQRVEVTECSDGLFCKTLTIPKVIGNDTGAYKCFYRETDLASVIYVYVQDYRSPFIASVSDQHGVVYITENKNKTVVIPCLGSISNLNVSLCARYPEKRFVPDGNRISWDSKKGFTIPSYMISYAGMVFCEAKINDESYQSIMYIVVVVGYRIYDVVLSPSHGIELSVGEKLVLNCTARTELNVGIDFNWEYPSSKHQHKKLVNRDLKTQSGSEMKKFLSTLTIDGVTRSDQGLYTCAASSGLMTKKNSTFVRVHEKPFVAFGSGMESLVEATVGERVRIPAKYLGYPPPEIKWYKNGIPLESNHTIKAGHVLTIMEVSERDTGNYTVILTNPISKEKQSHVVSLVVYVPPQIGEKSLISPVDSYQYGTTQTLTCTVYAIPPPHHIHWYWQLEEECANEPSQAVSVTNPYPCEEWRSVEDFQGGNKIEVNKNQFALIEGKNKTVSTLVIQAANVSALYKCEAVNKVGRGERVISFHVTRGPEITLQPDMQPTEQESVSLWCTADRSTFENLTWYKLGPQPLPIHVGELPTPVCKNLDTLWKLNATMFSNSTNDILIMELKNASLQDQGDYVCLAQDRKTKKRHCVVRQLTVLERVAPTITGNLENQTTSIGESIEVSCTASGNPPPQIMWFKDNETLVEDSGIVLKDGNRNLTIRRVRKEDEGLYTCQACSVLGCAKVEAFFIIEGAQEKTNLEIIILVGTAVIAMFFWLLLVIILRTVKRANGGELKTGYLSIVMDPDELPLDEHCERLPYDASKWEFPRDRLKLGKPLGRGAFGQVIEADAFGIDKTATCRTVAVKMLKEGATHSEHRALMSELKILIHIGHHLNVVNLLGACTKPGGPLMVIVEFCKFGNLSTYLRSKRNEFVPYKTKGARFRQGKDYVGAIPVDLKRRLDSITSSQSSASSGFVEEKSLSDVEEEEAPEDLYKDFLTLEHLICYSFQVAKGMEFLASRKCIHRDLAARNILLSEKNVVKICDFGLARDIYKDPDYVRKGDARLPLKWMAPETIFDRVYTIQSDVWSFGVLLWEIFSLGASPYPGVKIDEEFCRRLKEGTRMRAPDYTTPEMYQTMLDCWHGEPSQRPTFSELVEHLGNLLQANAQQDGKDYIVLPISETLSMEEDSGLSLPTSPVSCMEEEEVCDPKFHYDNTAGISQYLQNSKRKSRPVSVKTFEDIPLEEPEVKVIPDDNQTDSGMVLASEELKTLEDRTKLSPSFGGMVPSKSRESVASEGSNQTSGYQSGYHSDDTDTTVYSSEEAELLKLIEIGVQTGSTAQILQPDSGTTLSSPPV
Method: The cells were harvested, and the homogenates were prepared in saline using a tight pestle homogenizer until complete cell disruption. The kit used a double-antibody sandwich enzyme-linked immunosorbent assay (ELISA) to determine the level of human VEGFR-2 in samples. A monoclonal antibody for VEGFR-2 was pre-coated onto 96-well plates. The test samples were added to the wells and a biotinylated detection polyclonal antibody from goat specific for VEGFR-2 was added, subsequently followed by washing with PBS buffer. Avidin–Biotin–Peroxidase complex was added, and the unbound conjugates were washed away with PBS buffer. HRP substrate TMB was used to visualize HRP enzymatic reaction. TMB was catalysed by HRP to produce a blue colour product that changed into yellow after the addition of acidic stop solution. The density of yellow colour is proportional to the human VEGFR-2 amount of the sample captured in the plate. The chroma of colour and the concentration of the human VEGFR-2 of the samples were positively correlated and the optical density was determined at 450 nm. The level of human VEGFR-2 in samples was calculated (pg/mL) as duplicate determinations from the standard curve. The % inhibition was calculated in comparison to control untreated cells.

[8] = target: CDK-2/cyclin A2 (Homo sapiens, UniProt P24941); assay: In vitro kinase inhibitory assessment, CDK-2/cyclin A2 (ELISA); assay type: biochemical; settings: mean of three values; read-out: IC50 (Mean ± SEM) CDK-2/Cyclin A2
Method: Assay of CDK-2/cyclin A2 was achieved through ELISA using an affinity tag labelled capture antibody. Adding the samples and the standard to the wells was carried out after the addition of the antibody mix. After the incubation period, the unrestrained substance was discarded and the wells were washed. The added TMB (3,3′,5,5′-tetramethylbenzidine) substrate was prompted by Horseradish peroxidase (HRP) and blue coloration appeared. This reaction was stopped with the addition of stop solution to complete the change in colour from blue to yellow. The created signals were equivalent to the quantity of bound analyte and Robonik P2000 ELISA reader was used to record the intensity at a certain wavelength (450 nm). The concentrations of the screened compounds were calculated through the plotted curve.

[9] = test system: Paca-2 cells; assay: Cell cycle analysis by flow cytometry (PI staining); assay type: cell-based, human; settings: Paca-2, 24 h at IC50 (10.7 μM)
Method: (§1) Apoptosis investigation and cell cycle analysis were elucidated by flow cytometry. Paca-2 cells were seeded at 8 × 10^4 and incubated at 37 °C in 5% CO2 overnight. […] For cell cycle analysis, cell pellets were fixed with 70% ethanol on ice for 15 min and collected again. The pellets were incubated with propidium iodide (PI) staining solution at room temperature for 1 h and analysed by a Gallios flow cytometer (Beckman Coulter, Brea, CA, USA). Apoptosis detection was carried out by FITC AnnexinV/PI commercial kit (Becton Dickenson, Franklin Lakes, NJ, USA) following the manufacturer’s protocol. The samples were analysed by fluorescence-activated cell sorting (FACS) with a Gallios flow cytometer (Beckman Coulter, Brea, CA, USA) within 1 h after staining. Data were analysed using Kaluza v 1.2 (Beckman Coulter, Brea, CA, USA).

[10] = test system: Paca-2 cells; assay: Apoptosis detection, FITC Annexin V/PI flow cytometry; assay type: cell-based, human; settings: Paca-2, 24 h at IC50 (10.7 μM); DMSO control 0.28%
Method: as §1

[11] = test system: Caspase-3; assay: Caspase-3 protein level ELISA in Paca-2; assay type: cell-based, human; settings: Paca-2, 24 h at IC50 (10.7 μM)
Excerpt: The precoated micro-ELISA plate with an antibody specific to Caspase-3 was applied using the Human Caspase-3 ELISA Kit from Invitrogen INC. Catalog # KHO1091 (96 tests) (542 Flynn Road, Camarillo, CA, USA) according to the manufacturer’s instructions.

[12] = test system: Caspase-7; assay: Caspase-7 protein level ELISA in Paca-2; assay type: cell-based, human; settings: Paca-2, 24 h at IC50 (10.7 μM)
Method: The micro-ELISA plate provided in this kit was pre-coated with a Caspase-7-specific antibody. A biotinylated Caspase-7 antibody and Avidin–horseradish peroxidase (HRP) conjugate was added. The excess components were removed. The substrate solution was added. Wells containing Caspase-7, biotinylated detection antibody, and Avidin-HRP conjugate appeared blue in colour. The colour turned yellow following the addition of sulphuric acid solution. The optical density (OD) was measured at a wavelength of 450 ± 2 nm.

[13] = test system: Cytochrome-c; assay: Cytochrome-c ELISA in Paca-2; assay type: cell-based, human; settings: Paca-2, 24 h at IC50 (10.7 μM); control 0.123 ng/mL
Method: Cytochrome-c specific antibodies were precoated onto 96-well plates. Cytochrome-c were analysed by enzyme-linked immunosorbent assays (ELISAs) using commercial kits (ab119521; Abcam, Cambridge, MA, USA). The optimal dilutions were determined and ELISAs were performed according to the manufacturer’s instructions.

[14] = test system: PD-1; assay: PD-1 protein level ELISA in Paca-2; assay type: cell-based, human; settings: Paca-2, 24 h at IC50 (10.7 μM); untreated control 275.6 Pg/mL
Method: Samples or standards were added to the wells Human PD-1 eliza kit (ab252360 Human PD-1, Abcam, Cambridge, MA, USA), followed by the antibody mix. After incubation, the wells were washed to remove unbound material. TMB Development Solution was added and during incubation was catalysed by HRP, generating blue coloration. This reaction was then stopped by the addition of Stop Solution, completing any colour change from blue to yellow. The optical density (OD) was measured at a wavelength of 450 ± 2 nm.

[15] = test system: human colon (Caco-2) cancer cell line; settings: Caco-2, 100 µM
Method: as §2

[16] = Homo sapiens, PaCa-2, read-out: IC50 (Mean ± SEM) Paca-2

Row | melting point | IC50 [6] | IC50 [7] | IC50 [8] | Molecule | inhibition at 100 µM [1] | IC50 [1] | inhibition at 100 µM [2] | IC50 [2] | inhibition at 100 µM ([3]; Homo sapiens) | IC50 [3, 16] | % Inhibition Caco-2 [4] | IC50 [4] | inhibition at 100 µM ([5]; Homo sapiens) | IC50 ([5]; Homo sapiens) | also measured
1 |  | 0.09 ± 0.21 µM | 0.86 ± 0.25 µM | 0.19 ± 0.05 µM | O=c1cc(-c2ccccc2)c2ccc(OCc3nnn(CC(O)CO)n3)cc2o1 (stereo not drawn) [Compound 10, 7-((2-(2,3-Dihydroxypropyl)-2H-tetrazol-5-yl)methoxy)-4-phenyl-2H-chromen-2-one] | 99.2% | 25.4 ± 0.5 µM | 98.2% | 10.9 ± 0.1 µM | 99.9% | 10.7 ± 0.4 µM | 99.6% | 31.9 ± 0.7 µM | 95.8% | 8.8 ± 0.2 µM | increase of percentage of the cells at S phase compared to the control [9]: 1.3 folds; increase of pre-G1 phase cells percentage compared to the control [9]: 15.7 folds; late/secondary cellular apoptosis (PI / Annexin V-FITC, upper right quadrant) [10]: 15.55%; upregulation of caspase-3 protein level ([11]; versus control): 2.8 fold; caspase-3 protein level in treated cells ([11]; control 95.04 Pg/mL): 266.8 pg/mL; elevation of caspase-7 protein level ([12]; versus control): 4.3 fold; caspase-7 protein level in treated cells ([12]; control 0.555 ng/mL): 2.363 ng/mL; cytochrome-c release into the cytosol of treated cells [13]: 0.395 ng/mL; PD-1 level in treated cells [14]: 91.4 pg/mL
2 | 131 to 132 °C | 66 ± 0.01 µM | 45 ± 0.1 µM | 0.5 ± 0.11 µM | CC(=O)OC[C@H]1O[C@@H](n2cc(COc3ccc4c(-c5ccccc5)cc(=O)oc4c3)nn2)[C@H](OC(C)=O)[C@@H](OC(C)=O)[C@@H]1OC(C)=O [Compound 13, 4-Phenyl-7-((1-(2,3,4,6-Tetra-O-acetyl-β-D-glucopyranosyl)-1H-1,2,3-triazol-4-yl)methoxy)-2H-chromen-2-one] | 95.6% | 22.3 ± 0.6 µM | 96.9% | 14.5 ± 0.2 µM | 97.6% | 14.6 ± 1.1 µM | 99.6% | 40.5 ± 0.9 µM | 98.5% | 16.7 ± 0.3 µM | 
3 | 177 to 178 °C |  |  |  | O=c1cc(-c2ccccc2)c2ccc(OCc3cn([C@@H]4OC[C@@H](O)[C@H](O)[C@H]4O)nn3)cc2o1 [Compound 18, 4-Phenyl-7-((1-(β-D-Xylopyranosyl)-1H-1,2,3-triazol-4-yl)methoxy)-2H-chromen-2-one] | 91.4% | 37.6 ± 0.4 µM | 97.9% | 8.5 ± 0.3 µM | 96.9% | 36.4 ± 1.2 µM | 99.4% | 61.9 ± 1.3 µM | 98.5% | 10 ± 0.1 µM | 
4 | 89 to 90 °C | 53 ± 0.15 µM | 40 ± 0.05 µM | 0.48 ± 0.15 µM | CC(=O)OC1COC(n2cc(COc3ccc4c(-c5ccccc5)cc(=O)oc4c3)nn2)C(OC(C)=O)C1OC(C)=O [Compound 15, 4-Phenyl-7-((1-(2,3,4-tria-O-acetyl-β-D-xylopyranosyl)-1H-1,2,3-triazol-4-yl)methoxy)-2H-chromen-2-one] | 98.2% | 12.5 ± 0.9 µM | 94.7% | 9.9 ± 1 µM | 95% | 16.9 ± 0.9 µM | 99.3% | 20.4 ± 0.6 µM | 97.8% | 4.1 ± 0.3 µM | 

More lines, now with the values behind:

Row | Molecule | melting point | IC50 [6] | IC50 [7] | IC50 [8] | inhibition at 100 µM [1] | IC50 [1] | inhibition at 100 µM [2] | IC50 [2] | inhibition at 100 µM ([3]; Homo sapiens) | IC50 [3, 16] | % Inhibition Caco-2 [4] | IC50 [4] | inhibition at 100 µM ([5]; Homo sapiens) | IC50 ([5]; Homo sapiens) | also measured
5 | O=c1cc(-c2ccccc2)c2ccc(OCc3cn([C@@H]4O[C@H](CO)[C@@H](O)[C@H](O)[C@H]4O)nn3)cc2o1 [Compound 16, 4-Phenyl-7-((1-(β-D-glucopyranosyl)-1H-1,2,3-triazol-4-yl)methoxy)-2H-chromen-2-one] | 180 to 182 °C |  |  |  | 95.8% | 36.4 ± 1.1 µM | 97.5% | 16.3 ± 0.6 µM | 96.9% | 23.8 ± 1.1 µM | 99% | 48.1 ± 0.4 µM | 99.1% | 26.5 ± 0.7 µM | 
6 | 4-Phenyl-7-((1-(2,3,4-tri-O-acetyl-β-D-xylopyranosyl)-2H-tetrazol-5-yl)methoxy)-2H-chromen-2-one [Compound 6] |  |  |  |  |  |  |  |  |  |  |  |  |  |  | % Inhibition Caco-2 [15]: -; % Inhibition PC-3 ([1]; PC-3, at 100 µM, MTT): 9.1%; % Inhibition A-375 ([2]; A-375, at 100 µM, MTT): 45.8%; % Inhibition Paca-2 ([3]; Paca-2, at 100 µM, MTT): 72.1%; IC50 ([3]; read-out: IC50 (Mean ± SEM) Paca-2, Paca-2, MTT, 100 to 0.78 μM, three independent determinations): 60 ± 1.4 µM; % Inhibition Mel-501 ([5]; Mel-501, at 100 µM, MTT): 71%; IC50 ([5]; Mel-501, MTT, three independent determinations): 80.4 ± 2.1 µM
7 | C#CCOc1ccc2c(-c3ccccc3)cc(=O)oc2c1 [Compound 11, 4-Phenyl-7-(prop-2-yn-1-yloxy)-2H-chromen-2-one] | 116 to 117 °C |  |  |  | 16.7% |  | 9.1% |  | 58.1% |  | 0% |  | 44% |  | 
8 | O=c1cc(-c2ccccc2)c2ccc(OCc3cn([C@@H]4O[C@H](CO)[C@H](O)[C@H](O)[C@H]4O)nn3)cc2o1 [Compound 17, 4-Phenyl-7-((1-(β-D-galactopyranosyl)-1H-1,2,3-triazol-4-yl)methoxy)-2H-chromen-2-one] | 185 to 186 °C |  |  |  | 97.3% | 41 ± 2.1 µM | 98.5% | 39.6 ± 0.5 µM | 96.3% | 33.3 ± 0.5 µM | 95.6% | 48.1 ± 0.8 µM | 98.6% | 35.8 ± 0.7 µM | 
